Experimental data reported in patent publication US20210317140A1, “Heterocyclic Compounds and Methods of Use” (MEDIVATION TECHNOLOGIES, INC, priority 2013, published 2021).

Key:
Type in all cases: biochemical
TEC = target: T1, TEC (Homo sapiens, UniProt P42680); assay: TEC kinase profiling (BTK protocol); conditions: for TEC @ 0.3 μM (% Inh): 0.3 μM compound; for IC50: 10 dose IC50
T1 construct: purchased Reaction Biology Corporation
T1 sequence (P42680 1-631): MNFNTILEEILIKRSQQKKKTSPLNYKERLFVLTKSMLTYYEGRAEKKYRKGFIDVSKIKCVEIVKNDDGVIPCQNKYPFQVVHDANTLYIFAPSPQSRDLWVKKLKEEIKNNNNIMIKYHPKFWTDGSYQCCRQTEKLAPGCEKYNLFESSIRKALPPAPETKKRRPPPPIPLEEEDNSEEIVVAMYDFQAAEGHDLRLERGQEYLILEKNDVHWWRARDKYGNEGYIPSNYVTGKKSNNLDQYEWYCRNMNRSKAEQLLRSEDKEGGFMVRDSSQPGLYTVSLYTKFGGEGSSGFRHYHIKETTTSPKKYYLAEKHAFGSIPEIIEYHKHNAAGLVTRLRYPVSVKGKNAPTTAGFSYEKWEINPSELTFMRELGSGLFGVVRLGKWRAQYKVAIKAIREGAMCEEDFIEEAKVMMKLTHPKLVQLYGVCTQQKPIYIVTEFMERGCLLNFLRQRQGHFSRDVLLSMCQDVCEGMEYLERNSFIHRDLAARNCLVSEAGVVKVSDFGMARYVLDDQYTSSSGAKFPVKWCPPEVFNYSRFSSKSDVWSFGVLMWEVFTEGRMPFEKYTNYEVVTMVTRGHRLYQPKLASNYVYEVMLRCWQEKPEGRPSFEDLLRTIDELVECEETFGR
Method: BTK assay: In vitro profiling protein kinases was performed using the “HotSpot” assay platform. Briefly, specific kinase/substrate pairs along with required cofactors were prepared in reaction buffer. Compounds were prepared as 10 mM stock solutions in DMSO. Compounds were delivered into the reaction, followed 15-20 minutes later by addition of a mixture of ATP (Sigma, St. Louis Mo.) and ^33P ATP (Perkin Elmer, Waltham Mass.) to a final concentration of 10 μM. […] IC50 values and curve fits were obtained using Prism (GraphPad Software). Buffer Conditions: 20 mM Hepes (pH 7.5), 10 mM MgCl2, 1 mM EGTA, 0.02% Brij35, 0.02 mg/mL BSA, 0.1 mM Na3VO4, 2 mM DTT, 1% DMSO.

PI3Kδ = target: T2, PI3Kδ (Homo sapiens, UniProt O00329); assay: PI3Kδ kinase assay (HTRF, PIP3 detection); conditions: for PI3Kδ @ 0.01 μM (% Inh): 0.01 μM compound; for PI3Kδ @ 0.01 μM (% Inh) / PI3Kδ @ 0.1 μM (% Inh) / PI3Kδ @ 1 μM (% Inh): 10 μM ATP; for PI3Kδ @ 0.1 μM (% Inh): 0.1 μM compound; for IC50: 10 dose IC50, 10 μM ATP; for PI3Kδ @ 1 μM (% Inh): 1 μM compound
T2 construct: purchased Reaction Biology Corporation
T2 sequence (O00329 whole entry): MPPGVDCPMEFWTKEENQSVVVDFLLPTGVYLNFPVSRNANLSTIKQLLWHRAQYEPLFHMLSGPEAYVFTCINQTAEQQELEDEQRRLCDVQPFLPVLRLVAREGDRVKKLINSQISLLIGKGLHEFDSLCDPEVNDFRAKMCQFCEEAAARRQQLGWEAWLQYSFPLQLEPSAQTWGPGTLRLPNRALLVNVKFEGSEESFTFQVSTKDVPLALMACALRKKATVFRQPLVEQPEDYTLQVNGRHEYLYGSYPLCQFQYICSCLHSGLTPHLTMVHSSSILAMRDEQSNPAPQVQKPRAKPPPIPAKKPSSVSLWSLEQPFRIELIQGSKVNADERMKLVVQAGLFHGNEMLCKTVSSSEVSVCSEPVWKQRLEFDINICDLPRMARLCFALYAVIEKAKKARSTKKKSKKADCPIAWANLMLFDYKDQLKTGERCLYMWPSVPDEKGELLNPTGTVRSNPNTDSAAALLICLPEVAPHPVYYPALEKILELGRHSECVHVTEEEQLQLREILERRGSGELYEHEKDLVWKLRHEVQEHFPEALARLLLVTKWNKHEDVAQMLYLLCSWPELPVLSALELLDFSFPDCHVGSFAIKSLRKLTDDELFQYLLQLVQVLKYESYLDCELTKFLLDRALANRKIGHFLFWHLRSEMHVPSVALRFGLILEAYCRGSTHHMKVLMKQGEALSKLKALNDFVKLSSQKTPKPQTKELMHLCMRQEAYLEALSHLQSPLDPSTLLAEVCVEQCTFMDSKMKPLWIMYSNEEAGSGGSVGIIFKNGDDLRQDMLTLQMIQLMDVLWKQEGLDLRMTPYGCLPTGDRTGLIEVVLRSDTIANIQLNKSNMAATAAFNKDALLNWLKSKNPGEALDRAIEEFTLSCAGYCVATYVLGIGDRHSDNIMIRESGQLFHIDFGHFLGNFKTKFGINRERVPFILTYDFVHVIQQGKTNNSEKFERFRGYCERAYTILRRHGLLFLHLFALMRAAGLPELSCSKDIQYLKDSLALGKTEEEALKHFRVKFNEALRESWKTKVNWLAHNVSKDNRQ
T2 sequence (P27986 whole entry partner): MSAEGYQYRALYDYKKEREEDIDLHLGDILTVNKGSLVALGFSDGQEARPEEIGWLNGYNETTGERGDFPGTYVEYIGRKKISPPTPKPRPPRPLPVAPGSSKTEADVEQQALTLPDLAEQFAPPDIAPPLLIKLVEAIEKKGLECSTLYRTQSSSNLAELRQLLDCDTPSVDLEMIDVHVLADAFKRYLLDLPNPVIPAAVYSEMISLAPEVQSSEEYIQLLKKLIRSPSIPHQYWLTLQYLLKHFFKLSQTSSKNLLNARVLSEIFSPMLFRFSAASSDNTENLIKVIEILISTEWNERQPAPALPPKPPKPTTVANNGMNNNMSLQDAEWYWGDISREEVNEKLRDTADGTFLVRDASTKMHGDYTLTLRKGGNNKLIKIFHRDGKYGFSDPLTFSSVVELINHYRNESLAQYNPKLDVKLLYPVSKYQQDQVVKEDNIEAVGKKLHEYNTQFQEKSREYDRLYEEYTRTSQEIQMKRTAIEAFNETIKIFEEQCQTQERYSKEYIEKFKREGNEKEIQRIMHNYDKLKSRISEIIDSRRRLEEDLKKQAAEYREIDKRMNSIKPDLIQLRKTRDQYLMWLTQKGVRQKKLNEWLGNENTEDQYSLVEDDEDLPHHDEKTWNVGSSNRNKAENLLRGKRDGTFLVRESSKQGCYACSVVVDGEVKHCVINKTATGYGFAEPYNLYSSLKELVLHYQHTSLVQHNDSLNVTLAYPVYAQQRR
Summary of the method: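 10-dose HTRF assay; kinase preincubated with compound 10 min at RT, then reacted with 10 μM PIP2 and 10 μM ATP for 30 min at 30 °C in HEPES pH 7.0 buffer. PIP3 product displaces biotin-PIP3 from the Eu/APC complex; signal converted to PIP3 via standard curve, IC50 by nonlinear regression.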

PI3Kγ = target: T3, PI3Kγ (Homo sapiens, UniProt P48736); assay: PI3Kγ isoform profiling (PI3Kδ protocol); conditions: for PI3Kγ @ 0.3 μM (% Inh): 0.3 μM compound; for IC50: 10 dose IC50
T3 construct: purchased Reaction Biology Corporation
T3 sequence (P48736 whole entry, canonical isoform): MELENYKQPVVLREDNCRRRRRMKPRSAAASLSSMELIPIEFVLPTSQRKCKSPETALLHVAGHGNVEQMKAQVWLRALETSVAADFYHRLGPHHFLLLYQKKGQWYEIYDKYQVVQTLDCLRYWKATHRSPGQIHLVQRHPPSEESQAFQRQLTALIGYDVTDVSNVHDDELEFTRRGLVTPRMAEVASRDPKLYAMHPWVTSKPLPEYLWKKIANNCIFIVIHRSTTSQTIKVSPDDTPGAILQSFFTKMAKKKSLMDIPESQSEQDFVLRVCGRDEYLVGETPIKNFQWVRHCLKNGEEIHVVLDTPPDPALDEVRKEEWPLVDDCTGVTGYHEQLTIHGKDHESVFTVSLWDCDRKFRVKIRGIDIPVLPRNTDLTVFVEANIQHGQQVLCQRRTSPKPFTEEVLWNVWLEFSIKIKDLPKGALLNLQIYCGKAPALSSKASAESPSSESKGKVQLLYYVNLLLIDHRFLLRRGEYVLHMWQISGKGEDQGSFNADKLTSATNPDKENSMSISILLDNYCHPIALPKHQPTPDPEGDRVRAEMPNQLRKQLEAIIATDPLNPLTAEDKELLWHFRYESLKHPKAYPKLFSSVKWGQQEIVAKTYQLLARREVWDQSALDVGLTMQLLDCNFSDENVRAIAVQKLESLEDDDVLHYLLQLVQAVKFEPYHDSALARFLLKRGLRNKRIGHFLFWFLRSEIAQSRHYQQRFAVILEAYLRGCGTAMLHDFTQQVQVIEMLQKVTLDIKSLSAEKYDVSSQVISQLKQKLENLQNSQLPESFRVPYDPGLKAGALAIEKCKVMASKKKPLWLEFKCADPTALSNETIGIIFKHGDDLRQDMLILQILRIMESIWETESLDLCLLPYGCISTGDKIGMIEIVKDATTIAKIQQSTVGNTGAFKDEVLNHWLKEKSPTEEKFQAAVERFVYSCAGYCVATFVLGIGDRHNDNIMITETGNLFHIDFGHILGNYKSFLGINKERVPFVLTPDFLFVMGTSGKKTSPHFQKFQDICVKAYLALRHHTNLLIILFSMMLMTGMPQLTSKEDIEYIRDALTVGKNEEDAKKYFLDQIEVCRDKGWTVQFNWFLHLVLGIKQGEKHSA
Text: PI3Kδ assay: The PIP3 product is detected by displacement of biotin-PIP3 from an energy transfer complex consisting of Europium labeled anti-GST monoclonal antibody, a GST-tagged pleckstrin homology (PH) domain, biotinylated PIP3 and Streptavidin-Allophycocyanin (APC). Excitation of Europium in the complex results in an energy transfer to the APC and a fluorescent emission at 665 nm. The PIP3 product formed by PI 3-Kinase(h) activity displaces biotin-PIP3 from the complex resulting in a loss of energy transfer and thus a decrease in signal. This is a 3-step reaction: First, the kinase reaction with PIP2 substrate is carried out in the presence of ATP (10 μM), and the reaction is quenched with stop Solution, and then finally detect by adding Detection Mixture followed by incubation (10 min). Reaction procedure: 1) Prepare substrate in freshly prepared Reaction Buffer. 2) Deliver kinase into the substrate solution and gently mix. 3) Deliver compounds in 100% DMSO (1 μM) into the kinase reaction mixture by Acoustic technology (Echo550; nanoliter range), incubate for 10 min at RT. 4) Deliver ATP into the reaction mixture to initiate the reaction. 5) Incubate for 30 min at 30° C. 6) Quench the reaction with Stop Solution. 7) Add Detection Mixture, and incubate for overnight. 8) Measure HTRF: Ex=320 nm, ratio of Em=615 nm and Em=665 nm. The emission ratio is converted into μM PIP3 production based on PIP3 standard curves. The nonlinear regression to obtain the standard curve and IC50 values are performed using Graphpad Prism software. Assay Buffer: HEPES 50 mM (pH7.0), NaN3 0.02%, BSA 0.01%, Orthovanadate 0.1 mM, 1% DMSO. Detection buffer: HEPES 10 mM (pH7.0), BSA 0.02%, KF 0.16 M, EDTA 4 mM. Substrate: 10 μM PIP2 substrate (PI(4,5)P2).
Compounds of the invention were profiled in a 10 dose IC50 panel against PI3Kα, PI3Kβ, and PI3Kγ kinases, provided by Reaction Biology Corporation, applied to the PI3Kδ protocol provided in Example B1.

Structure (SMILES)	TEC @ 0.3 μM (% Inh) (TEC)	PI3Kδ @ 0.01 μM (% Inh) (PI3Kδ)	PI3Kδ @ 0.1 μM (% Inh) (PI3Kδ)	IC50 (PI3Kδ)	PI3Kγ @ 0.3 μM (% Inh) (PI3Kγ)	IC50 (TEC)	IC50 (PI3Kγ)	TEC @ 0.3 μM (% Inh) (TEC; 0.3 µM)	PI3Kγ @ 0.3 μM (% Inh) (PI3Kγ; 0.3 µM)	PI3Kδ @ 1 μM (% Inh) (PI3Kδ)
Nc1ncnc2c1c(-c1cc(O)c(F)c(F)c1)cn2C1Cc2ccccc2C1 [Compound No. 101, 5-[4-amino-7-(2,3-dihydro-1H-inden-2-yl)-7H-pyrrolo[2,3-d]pyrimidin-5-yl]-2,3-difluorophenol]	91.2 % Inh	26.61 % Inh	62.53 % Inh	62.1 nM	57.6 % Inh					
C=CC(=O)N1CC(n2nc(-c3cc(O)cc(F)c3)c3c(N)ncnc32)Cc2cc(C)ccc21 (stereo not drawn) [compound 31, 1-(3-(4-amino-3-(3-fluoro-5-hydroxyphenyl)-1H-pyrazolo[3,4-d]pyrimidin-1-yl)-6-methyl-3,4-dihydroquinolin-1(2H)-yl)prop-2-en-1-one]	57.08 % Inh		44.38 % Inh	33.6 nM	0.74 % Inh	24300 nM	6460 nM			
Nc1ncnc2c1c(-c1ccc(Cl)c(O)c1)cn2C1Cc2ccccc2C1 [Compound No. 93, 5-[4-amino-7-(2,3-dihydro-1H-inden-2-yl)-7H-pyrrolo[2,3-d]pyrimidin-5-yl]-2-chlorophenol]	106.37 % Inh	24.46 % Inh	59.57 % Inh	21.2 nM	72.89 % Inh					
Nc1ncnc2c1c(-c1cc(O)c(F)c(Cl)c1)cn2C1Cc2ccccc2C1 [compound 110, 5-[4-amino-7-(2,3-dihydro-1H-inden-2-yl)-7H-pyrrolo[2,3-d]pyrimidin-5-yl]-3-chloro-2-fluorophenol]	89.37 % Inh	40.85 % Inh	76.2 % Inh	11.9 nM	47.05 % Inh					
Nc1ncnc2c1c(-c1cc(O)cc(F)c1)nn2C1CCc2ccccc2C1 (single isomer, unassigned) [6a, 3-(4-amino-1-(1,2,3,4-tetrahydronaphthalen-2-yl)-1H-pyrazolo[3,4-d]pyrimidin-3-yl)-5-fluorophenol]			77.7 % Inh	9.1 nM				41.28 % Inh	38.58 % Inh	
Nc1ncnc2c1c(-c1cc(O)cc(F)c1)nn2C1CCc2ccccc2C1 (stereo not drawn) [compound 6, 3-(4-amino-1-(1,2,3,4-tetrahydronaphthalen-2-yl)-1H-pyrazolo[3,4-d]pyrimidin-3-yl)-5-fluorophenol]				8.6 nM		280 nM	122 nM			
COc1ccc(-c2nn(C3Cc4ccccc4C3)c3ncnc(N)c23)cc1O [Compound No. 68, 5-[4-amino-1-(2,3-dihydro-1H-inden-2-yl)-1H-pyrazolo[3,4-d]pyrimidin-3-yl]-2-methoxyphenol]	42.69 % Inh		57.97 % Inh	32.1 nM	51.6 % Inh					87.4 % Inh
Nc1ncnc2c1c(-c1cc(O)cc(F)c1)nn2C1CCc2ccccc2C1 (single isomer, unassigned) [6b, 3-(4-amino-1-(1,2,3,4-tetrahydronaphthalen-2-yl)-1H-pyrazolo[3,4-d]pyrimidin-3-yl)-5-fluorophenol]			79.6 % Inh	7.7 nM				27.3 % Inh	45.57 % Inh	
Nc1ncnc2c1c(-c1cc(O)cc(F)c1)cn2C1Cc2ccccc2C1 [Compound No. 63, 3-[4-amino-7-(2,3-dihydro-1H-inden-2-yl)-7H-pyrrolo[2,3-d]pyrimidin-5-yl]-5-fluorophenol]	88.12 % Inh		81.43 % Inh	10.4 nM	33.44 % Inh					92.56 % Inh
Nc1ncnc2c1c(-c1cc(F)c3c(c1)NCCO3)nn2C1Cc2ccccc2C1 [Compound No. 84, 1-(2,3-dihydro-1H-inden-2-yl)-3-(8-fluoro-3,4-dihydro-2H-1,4-benzoxazin-6-yl)-1H-pyrazolo[3,4-d]pyrimidin-4-amine]	23.9 % Inh		53.06 % Inh	34.8 nM	55.61 % Inh					88.36 % Inh
Nc1ncnc2c1c(-c1cc(O)cc(F)c1)nn2C1Cc2ccc(F)cc2C1 (stereo not drawn) [compound 57, 3-[4-amino-1-(5-fluoro-2,3-dihydro-1H-inden-2-yl)-1H-pyrazolo[3,4-d]pyrimidin-3-yl]-5-fluorophenol]	40.21 % Inh		96.89 % Inh	8 nM	30.85 % Inh					100.0 % Inh
Nc1ncnc2c1c(-c1ccc(F)c(O)c1)nn2C1CCc2ccccc2C1 (racemic) [Compound No. 26, 5-(4-amino-1-(1,2,3,4-tetrahydronaphthalen-2-yl)-1H-pyrazolo[3,4-d]pyrimidin-3-yl)-2-fluorophenol]	66.1 % Inh			66.1 nM	38.75 % Inh					
Nc1ncnc2c1c(-c1ccc3cc[nH]c3c1)nn2C1CCc2ccccc2C1 (racemic) [compound 18, 3-(1H-indol-6-yl)-1-(1,2,3,4-tetrahydronaphthalen-2-yl)-1H-pyrazolo[3,4-d]pyrimidin-4-amine]	10.01 % Inh		18.95 % Inh	108 nM	19.7 % Inh					
C=CC(=O)N1CC(n2nc(-c3cc(O)cc(F)c3)c3c(N)ncnc32)Cc2cc(C)ccc21 (single isomer, unassigned) [31b, 1-(3-(4-amino-3-(3-fluoro-5-hydroxyphenyl)-1H-pyrazolo[3,4-d]pyrimidin-1-yl)-6-methyl-3,4-dihydroquinolin-1(2H)-yl)prop-2-en-1-one]	56.91 % Inh	44.15 % Inh	78.27 % Inh	10.6 nM	14.76 % Inh					
N#Cc1cc(-c2cn(C3Cc4ccccc4C3)c3ncnc(N)c23)cc(O)c1F [compound 115, 5-[4-amino-7-(2,3-dihydro-1H-inden-2-yl)-7H-pyrrolo[2,3-d]pyrimidin-5-yl]-2-fluoro-3-hydroxybenzonitrile]	48.29 % Inh	82.64 % Inh	93.12 % Inh	1.9 nM	59.21 % Inh					
Nc1ncnc2c1c(-c1cc(O)c(Cl)c(Cl)c1)cn2C1Cc2ccccc2C1 [Compound No. 107, 5-[4-amino-7-(2,3-dihydro-1H-inden-2-yl)-7H-pyrrolo[2,3-d]pyrimidin-5-yl]-2,3-dichlorophenol]	87.72 % Inh			12.9 nM	45.49 % Inh					
